From ChEMBL document CHEMBL1201862, “PubChem BioAssay data set” (2004)
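The compound was tested at five concentrations on cells cultured in 96-well plates, with a 48-hour exposure period. The concentration for 50% growth inhibition is given as GI50.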 Activity calls are given as the source filed them. No stated cut-off is given here; in the data, active = GI50 up to about 1.1 µM and inactive = higher.

Assays:
Assay in all cases: NCI anticancer screen, dose series, 48 h
[1] = system: 786-0
[2] = system: A498
[3] = system: A549
[4] = system: BT-549
[5] = system: CAKI-1
[6] = system: CCRF-CEM
[7] = system: COLO 205
[8] = system: DU-145
[9] = system: EKVX
[10] = system: HCC 2998
[11] = system: HCT-116
[12] = system: HCT-15
[13] = system: HL-60
[14] = system: HOP-62
[15] = system: HOP-92
[16] = system: HT-29
[17] = system: Hs-578T
[18] = system: IGROV-1
[19] = system: K562
[20] = system: KM12
[21] = system: LOX IMVI
[22] = system: M14
[23] = system: MCF7
[24] = system: MDA-MB-231
[25] = system: MDA-MB-435
[26] = system: MDA-N
[27] = system: MOLT-4
[28] = system: Malme-3M
[29] = system: NCI-H226
[30] = system: NCI-H23
[31] = system: NCI-H460
[32] = system: NCI/ADR-RES
[33] = system: OVCAR-3
[34] = system: OVCAR-4
[35] = system: OVCAR-5
[36] = system: OVCAR-8
[37] = system: PC-3
[38] = system: RPMI-8226
[39] = system: RXF 393
[40] = system: SF-268
[41] = system: SF-295
[42] = system: SF-539
[43] = system: SK-MEL-28
[44] = system: SK-MEL-2
[45] = system: SK-MEL-5
[46] = system: SK-OV-3
[47] = system: SN12C
[48] = system: SNB-19
[49] = system: SNB-75
[50] = system: SR
[51] = system: SW-620
[52] = system: T47D
[53] = system: U-251
[54] = system: UACC-257
[55] = system: UACC-62
[56] = system: UO-31
[57] = system: ACHN
[58] = system: NCI-H522
[59] = system: TK-10

For `CCOC(=O)c1cc2c([nH]1)c(O)cc1c2ccn1Cc1ccccc1`, the GI50 [1] was 18.1 µM (inactive), the GI50 [2] was 29.8 µM (inactive) and the GI50 [3] was 13.7 µM (inactive). For the same molecule, the GI50 [4] was 17.8 µM (inactive), the GI50 [5] was 22 µM (inactive) and the GI50 [6] was 10.8 µM (inactive). For the same molecule, the GI50 [7] was 21.4 µM (inactive), the GI50 [8] was 17.8 µM (inactive) and the GI50 [9] was 12.8 µM (inactive). The GI50 [10] was 19 µM (inactive), the GI50 [11] was 11.6 µM (inactive) and the GI50 [12] was 15.1 µM. For the same molecule, the GI50 [13] was 13 µM (inactive), the GI50 [14] was 17.7 µM (inactive) and the GI50 [15] was 13.5 µM (inactive). For the same molecule, the GI50 [16] was 16.6 µM (inactive), the GI50 [17] was 19.4 µM (inactive) and the GI50 [18] was 19.3 µM (inactive). For the same molecule, the GI50 [19] was 8.34 µM (inactive), the GI50 [20] was 10.3 µM (inactive) and the GI50 [21] was 14.4 µM (inactive). For the same molecule, the GI50 [22] was 23.6 µM (inactive), the GI50 [23] was 12.5 µM (inactive) and the GI50 [24] was 23.5 µM (inactive). The GI50 [25] was 16.9 µM (inactive), the GI50 [26] was 15.3 µM (inactive) and the GI50 [27] was 1.91 µM (inactive). For the same molecule, the GI50 [28] was 18.5 µM (inactive), the GI50 [29] was 15.1 µM (inactive) and the GI50 [30] was 13.7 µM (inactive). The GI50 [31] was 19.5 µM (inactive), the GI50 [32] was 17.3 µM (inactive) and the GI50 [33] was 14.6 µM (inactive). For the same molecule, the GI50 [34] was 19.9 µM (inactive), the GI50 [35] was 17.7 µM (inactive) and the GI50 [36] was 17.2 µM (inactive). The GI50 [37] was 16.1 µM (inactive), the GI50 [38] was 8.41 µM (inactive) and the GI50 [39] was 7.8 µM (inactive). The GI50 [40] was 19.5 µM (inactive), the GI50 [41] was 15.8 µM (inactive) and the GI50 [42] was 19.4 µM (inactive). For the same molecule, the GI50 [43] was 17.5 µM (inactive), the GI50 [44] was 20.4 µM (inactive) and the GI50 [45] was 12.1 µM (inactive). For the same molecule, the GI50 [46] was 20.7 µM (inactive), the GI50 [47] was 20.2 µM (inactive) and the GI50 [48] was 14.2 µM (inactive). For the same molecule, the GI50 [49] was 22.2 µM (inactive), the GI50 [50] was 1.03 µM (active) and the GI50 [51] was 18 µM (inactive). The GI50 [52] was 2.85 µM (inactive), the GI50 [53] was 16.7 µM (inactive) and the GI50 [54] was 19.7 µM (inactive). The GI50 [55] was 15.5 µM (inactive) and the GI50 [56] was 14.9 µM (inactive).
For `CC(=O)NCCC1CN(C(=O)/C=C\C#C[Si](C)(C)C)c2ccccc21` (configuration not stated), the GI50 [2] was 45.3 µM (inactive), the GI50 [3] was 27.5 µM (inactive) and the GI50 [57] was 26.6 µM (inactive). For the same molecule, the GI50 [4] was 21 µM (inactive), the GI50 [5] was 13.8 µM (inactive) and the GI50 [6] was 11.8 µM (inactive). The GI50 [7] was 4.88 µM (inactive), the GI50 [8] was 23.3 µM (inactive) and the GI50 [9] was 14.8 µM (inactive). For the same molecule, the GI50 [10] was 20.1 µM (inactive), the GI50 [11] was > 10 µM (inactive) and the GI50 [12] was 17.2 µM. The GI50 [13] was 23.3 µM (inactive), the GI50 [15] was 41.1 µM (inactive) and the GI50 [16] was 20.3 µM (inactive). For the same molecule, the GI50 [17] was 33 µM (inactive), the GI50 [18] was 14.1 µM (inactive) and the GI50 [19] was 15.3 µM (inactive). The GI50 [20] was 24.7 µM (inactive), the GI50 [21] was 11.9 µM (inactive) and the GI50 [22] was 13.3 µM (inactive). The GI50 [23] was 5.36 µM (inactive), the GI50 [24] was 17.3 µM (inactive) and the GI50 [25] was 21.2 µM (inactive). For the same molecule, the GI50 [26] was 13.5 µM (inactive), the GI50 [27] was 17.3 µM (inactive) and the GI50 [28] was 13.1 µM (inactive). For the same molecule, the GI50 [29] was 14.9 µM (inactive), the GI50 [30] was 11.9 µM (inactive) and the GI50 [31] was 28.8 µM (inactive). The GI50 [58] was 10.5 µM (inactive), the GI50 [32] was 22.1 µM (inactive) and the GI50 [33] was 16 µM (inactive). For the same molecule, the GI50 [34] was 18.9 µM (inactive), the GI50 [35] was 17.1 µM (inactive) and the GI50 [36] was 37.9 µM (inactive). For the same molecule, the GI50 [37] was 27 µM (inactive), the GI50 [38] was 10.5 µM (inactive) and the GI50 [39] was 12.1 µM (inactive). For the same molecule, the GI50 [40] was 48.2 µM (inactive), the GI50 [41] was 21.5 µM (inactive) and the GI50 [42] was 20.3 µM (inactive). The GI50 [43] was 50.8 µM (inactive), the GI50 [44] was 14 µM (inactive) and the GI50 [45] was 6.35 µM (inactive). The GI50 [46] was 25.3 µM (inactive), the GI50 [47] was 37.3 µM (inactive) and the GI50 [48] was 26.3 µM (inactive). For the same molecule, the GI50 [50] was > 10 µM (inactive), the GI50 [51] was 35.2 µM (inactive) and the GI50 [52] was 23.3 µM (inactive). The GI50 [59] was 23 µM (inactive), the GI50 [53] was > 10 µM (inactive) and the GI50 [54] was 2.55 µM (inactive). For the same molecule, the GI50 [55] was 8.49 µM (inactive) and the GI50 [56] was 26.9 µM (inactive).
